The values that follow come from patent US11274095B2, “Modulators of methyl modifying enzymes, compositions and uses thereof” (Constellation Pharmaceuticals, Inc., priority 2018, dated 2022).

The nature of series [1]: Cellular permeability in MDCK assay. Format: in vitro ADME. The note with it: dog, pH 7.4, MDCK II, with P-gp inhibitor GF120918 10 μM; for efflux ratio at 2.5 h, 2 μM: Papp(BA)/Papp(AB). As for the experimental part:
Cell culture: MDCK II cells (obtained from Piet Borst at the Netherlands Cancer Institute) were seeded onto […] (PET) in 96-well BD insert systems at 2.5×10^5 cells/mL until to 4-7 days for confluent cell monolayer formation.
Experimental procedure: Test and reference compounds (nadolol, metoprolol and digoxin) were diluted with transport buffer (HBSS with 10mM Hepes, pH7.4) from stock solution to a concentration of 2 μM (<1% DMSO) and applied to the apical (A) or basolateral (B) side of the cell monolayer. Permeation of the test compounds from A to B direction or B to A direction was determined in duplicate with P-gp inhibitor (GF120918, 10 μM). Digoxin was tested at 10 μM from A to B direction or B to A direction with/without P-gp inhibitor (GF120918, 10 μM) as well, while nadolol and metoprolol were tested at 2 μM in A to B direction without P-gp inhibitor (GF120918, 10 μM) in duplicate. The plate was incubated for 2.5 hours in CO2 incubator at 37±1° C., with 5% CO2 at saturated humidity without shaking. In addition, the efflux ratio of each compound was also determined. Test and reference compounds were quantified by LC/MS/MS analysis based on the peak area ratio of analyte/IS. After transport assay, Lucifer yellow rejection assay are applied to determine the cell monolayer integrity. Buffers are removed from both apical and basolateral chambers, followed by the addition of 75 μL of 100 μM lucifer yellow in transport buffer and 250 μL transport buffer in apical and basolateral chambers, respectively. The plate is incubated for 30 minutes at 37° C. with 5% CO2 and 95% relative humidity without shaking. After 30 minutes incubation, 20 μL of lucifer yellow samples are taken from the apical sides, followed by the addition of 60 μL of Transport Buffer. And then 80 μL of lucifer yellow samples are taken from the basolateral sides. The relative fluorescence unit (RFU) of lucifer yellow is measured at 425/528 nm (excitation/emission) with a Molecular Device M2e plate reader.
Data analysis: The apparent permeability coefficient Papp (cm/s) was calculated using the equation: Papp=(dCr/dt)×Vr/(A×C0) Where dCr/dt is the cumulative concentration of compound in the receiver chamber as a function of time (μM/s); Vr is the solution volume in the receiver chamber (0.075 mL on the apical side, 0.25 mL on the basolateral side); A is the surface area for the transport, i.e. 0.0804 cm2 for the area of the monolayer; C0 is the initial concentration in the donor chamber (μM).
The efflux ratio was calculated using the equation: Efflux Ratio=Papp(BA)/Papp(AB) Percent recovery was calculated using the equation: % Recovery=100×[(Vr×Cr)+(Vd×Cd)]/(Vd×C0) Where Vd is the volume in the donor chambers (0.075 mL on the apical side, 0.25 mL on the basolateral side); Cd and Cr are the final concentrations of transport compound in donor and receiver chambers, respectively.
Percent of lucifer yellow in basolateral well is calculated using the equation:
[formula] where RFUApical and RFUBasolateral are the relative fluorescence unit values of lucifer yellow in the apical and basolateral wells, respectively; VApical and VBasolateral are the volume of apical and basolateral wells (0.075 mL and 0.25 mL), respectively. Percent lucifer yellow should be less than 2.

A further series concerns H3K27me3 in Hela cells. Kind of series: H3K27me3 Alpha Hela Assay (AlphaLISA). The format is cell-based. The following applies: Homo sapiens, HeLa, 72 h. How it is done:
H3K27me3 Alpha Hela Assay (AlphaLISA). Ten different doses of each test compound (in a series of 3-fold dilutions) were plated in duplicate 384-well tissue culture treated plates (Catalog #6007680; Perkin Elmer, Waltham, Mass.). Hela cells grown in culture were trypsinized and counted using a Countess® cell counter (Catalog #C10281; Life Technologies, Grand Island, N.Y.). Cell were diluted to 67,000 cells per mL in10% DMEM (Catalog #10569-010 Life Technologies, Grand Island, N.Y.) and 15 μL (1,000 cells) were plated into each well using the Biotek MicroFlo™ Select Dispenser (BioTek Instruments, Inc. Vermont, USA),) of the 384-well plate. Plates were incubated at 37° C./5% CO2 for 72 hrs. One of the duplicate plates was processed for HeLa assay and the other for viability. 5 μL of Cell-Histone Lysis buffer (1×) (Catalog #AL009F1 Perkin Elmer; Waltham, Mass.) per well was added to the plate processed for AlphaLISA and the plate was incubated at RT for 30 minutes on a plate shaker with low speed (Model# 4625-Q Thermo Scientific; Waltham, Mass.). Then, 10 μL per well Histone Extraction buffer (catalog #AL009F2; Perkin Elmer; Waltham, Mass.) was added and the plate further incubated at RT for 20 min on plate shaker with low speed. Next, 10 μL of 5× mix of anti-K27me3 acceptor beads plus Biotinylated anti-Histone H3 (C-ter) Antibody (diluted to 3 nM final) (Catalog #AL118 Perkin Elmer; Waltham, Mass.) was added in each well. Dilution of the acceptor beads and anti-Histone H3 was done in 1× Histone Detection buffer (Catalog #AL009F3 Perkin Elmer; Waltham, Mass.) which was produced by diluting the 10× stock provided. The plate was sealed with an aluminum plate sealer and incubated at 23° C. for 60 min. Next, 10 μL 5× solution of Streptavidin Donor beads were added (Catalog #6760002 Perkin Elmer; Waltham, Mass.) (20 μg/mL final in 1× Histone Detection Buffer), =plate was sealed with Aluminum plate sealer and incubated at 23° C. for 30 min. The plates were then read using an EnVision-Alpha Reader (model #2104 Perkin Elmer; Waltham, Mass.). […]

Consider `CSc1cc(C)[nH]c(=O)c1CNC(=O)c1cc(Cl)c2c(c1C)OC(C)(C1CCC(N3CC(OC(F)F)C3)CC1)O2` (single isomer, unassigned) [Example 1, 7-chloro-2-(4-(3-(difluoromethoxy)azetidin-1-yl)cyclohexyl)-2,4-dimethyl-N-((6-methyl-4-(methylthio)-2-oxo-1,2-dihydropyridin-3-yl)methyl)benzo[d][1,3]dioxole-5-carboxamide], for which, in series [1], the Papp at 2.5 h, 2 μM was determined as 5.6 ×10⁻⁶ cm/s and the efflux ratio at 2.5 h, 2 μM turned out to be 0.79. This molecule also came in with an EC50 in the series on H3K27me3 in Hela cells of 0.52 nM.

On to `CSc1cc(C)[nH]c(=O)c1CNC(=O)c1cc(Cl)c2c(c1C)OC(C)(C1CCC(N3CC(OC4CC4)C3)CC1)O2` (single isomer, unassigned) [Example 9], for which, in series [1], the apparent permeability (Papp) at 2.5 h, 2 μM came to 3.8 ×10⁻⁶ cm/s and the efflux ratio at 2.5 h, 2 μM is 1.4. The molecule also had an EC50 with H3K27me3 in Hela cells of 0.61 nM.

For the molecule `COC1CN(C2CCC(C3(C)Oc4c(Cl)cc(C(=O)NCc5c(SC)cc(C)[nH]c5=O)c(C)c4O3)CC2)C1` (single isomer, unassigned) [Example 17, 7-chloro-2-(4-(3-methoxyazetidin-1-yl)cyclohexyl)-2,4-dimethyl-N-((6-methyl-4-(methylthio)-2-oxo-1,2-dihydropyridin-3-yl)methyl)benzo[d][1,3]dioxole-5-carboxamide], in series [1], the apparent permeability (Papp) at 2.5 h, 2 μM was determined as 2.5 ×10⁻⁶ cm/s and the efflux ratio at 2.5 h, 2 μM stood at 1.8. The molecule further had an EC50 in the series with H3K27me3 in Hela cells of 0.33 nM.

Turning to `Cc1cc(Cl)c(CNC(=O)c2cc(Cl)c3c(c2C)OC(C)(C2CCC(N4CC(OC5CC5)C4)CC2)O3)c(=O)[nH]1` (single isomer, unassigned) [Example 8, 7-chloro-N-((4-chloro-6-methyl-2-oxo-1,2-dihydropyridin-3-yl)methyl)-2-(4-(3-cyclopropoxyazetidin-1-yl)cyclohexyl)-2,4-dimethylbenzo[d][1,3]dioxole-5-carboxamide], in series [1], the Papp at 2.5 h, 2 μM came to 6.1 ×10⁻⁶ cm/s and the efflux ratio at 2.5 h, 2 μM was 0.9. The EC50 in the series with H3K27me3 in Hela cells is 0.52 nM.

With `CSc1nc(C)[nH]c(=O)c1CNC(=O)c1cc(Cl)c2c(c1C)OC(C)(C1CCC(N3CC(OC(F)F)C3)CC1)O2` (single isomer, unassigned) [Example 10], in series [1], the Papp at 2.5 h, 2 μM turned out to be 6.5 ×10⁻⁶ cm/s and the efflux ratio at 2.5 h, 2 μM was found to be 0.69. This molecule also yielded an EC50 in the series with H3K27me3 in Hela cells of 1.9 nM.

For the molecule `CSc1cc(C)[nH]c(=O)c1CNC(=O)c1cc(Cl)c2c(c1C)OC(C)(C1CCC(N3CC(F)C3)CC1)O2` (single isomer, unassigned) [Example 12], in series [1], the apparent permeability (Papp) at 2.5 h, 2 μM stood at 6.3 ×10⁻⁶ cm/s and the efflux ratio at 2.5 h, 2 μM was 1.2. Also, the EC50 with H3K27me3 in Hela cells was 0.59 nM.

Turning to `Cc1cc(Cl)c(CNC(=O)c2cc(Cl)c3c(c2C)OC(C)(C2CCC(N4CC(OC(F)F)C4)CC2)O3)c(=O)[nH]1` (single isomer, unassigned) [Example 13], in series [1], the apparent permeability (Papp) at 2.5 h, 2 μM turned out to be 8.9 ×10⁻⁶ cm/s and the efflux ratio at 2.5 h, 2 μM is 0.64. In the series on H3K27me3 in Hela cells, this molecule registered an EC50 of 0.81 nM.

By Papp is commonly meant the rate of passage across a membrane or cell layer, normalised by area and donor concentration. A lower Papp goes with slow passage. The efflux ratio is the permeability from basolateral to apical divided by that in the opposite direction, in the common usage. The EC50 is the midpoint of the concentration-response curve. The low end stands for a more potent agent, the high end for a less potent agent.
